Values of other authors as cited in US7947677B2, “Spirolactam tricyclic CGRP receptor antagonists” (Merck Sharp & Dohme Corp., priority 2005, dated 2011).
No end group written: not given here.

Columns and labels:
[1] = test system: facial blood flow; settings: marmoset, electrical stimulation of the trigeminal ganglion (Doods et al. 2000)
[2] = test system: middle meningeal artery; settings: rats, electrical stimulation of the dura mater, prior administration (Williamson et al. 1997)
[3] = test system: facial blood flow; settings: rat, trigeminal ganglion stimulation (Escott et al. 1995)

Molecule	increase in facial blood flow [1]	increase of the diameter of the middle meningeal artery [2]	increased facial blood flow [3]
NCCCC[C@H](NC(=O)[C@@H](Cc1cc(Br)c(O)c(Br)c1)NC(=O)N1CCC(N2Cc3ccccc3NC2=O)CC1)C(=O)N1CCN(c2ccncc2)CC1 [BIBN4096BS]	blocked		
CGRP(8-37): a fragment of CGRP that lacks seven N-terminal amino acid residues; a peptide CGRP antagonist (VTHRLAGLLSRSGGVVKNNFVPTNVGSKAF; ends and bridges not checked; UniProt P06881 90-119, looked up, fragment)		blocked	inhibited
